# From publication PMC7946403, “Targeted LC-MS/MS platform for the comprehensive determination of peptides in the kallikrein-kinin system” (Analytical and Bioanalytical Chemistry, 2021)
# Counter-ions that a name gives are not always drawn.
# Key:
# [1] = test system: artificial generation of bradykinin; experiment: Evaluation of inhibitors preventing the artificial formation of bradykinin for generation of blank plasma; design: species or system human; conditions: plasma from prespiked S-Monovettes stored at 21 °C, analysed after 30 min, 1.5 h and 4.5 h, n = 3
# Procedure: Due to the endogenous presence of kinins in human plasma, it was aimed to develop a surrogate matrix mimicking human biological samples at best. Therefore, distinct serine protease inhibitors were evaluated for their ability to prevent the artificial generation of bradykinin after blood sampling. […] Therefore, plasma was drawn into prespiked S-Monovettes® and aliquots of the plasma stored at 21 °C were analysed after 30 min, 1.5 h and 4.5 h. The following inhibitors were investigated and compared to plasma without inhibitor (each n = 3): 4-(2-aminoethyl)benzolsulfonylfluoride (AEBSF), hexadimethrine bromide, aprotinin, nafamostat mesylate and leupeptin. Additionally, the final blank generation protocol was evaluated for six human sources, whose generated blanks were analysed in triplicate to ensure the depletion of endogenous peptides across multiple sources.
# [2] = format: in vitro ADME, human
# Procedure: In this study, human blank plasma was generated by sampling blood into trisodium citrate S-Monovettes® spiked with hexadimethrine bromide and nafamostat mesylate to prevent the artificial generation of bradykinin. After centrifugation at 2000×g for 10 min at room temperature, the plasma was left at room temperature for 4 h to enable degradation of short-lived kinins. The blank plasma generated was stored at −20 °C until use.
# Before preparation of quality control (QC) or calibration curve samples, a protease inhibitor was added to blank plasma samples, following a protocol derived from Nussberger et al.. Solid-phase extraction (SPE) was performed using 96-well Oasis weak cation exchange (WCX) μ-elution plates (Waters, Milford, MA, USA). The wells were conditioned with 200 μL methanol, followed by 200 μL water. […]
# Finally, stability was examined using three replicates of four QC levels (high [750.0 pg/mL], mid [125.0 pg/mL] and low [31.1 pg/mL and 7.8 pg/mL]). […] Freeze-thaw stability was determined after one, two and four cycles of complete thawing and refreezing of samples at −80 °C. Furthermore, long-term stability of the plasma samples was analysed after 1, 2 and 4 weeks. For all stability investigations, the maximum deviation of the calculated concentration to the nominal concentration compared to a freshly prepared calibration curve was ≤15% (RE).
molecule,measurement,setting,value
CC(=O)N[C@@H](CC(C)C)C(=O)N[C@@H](CC(C)C)C(=O)N[C@H](C=O)CCCNC(=N)N [leupeptin],Prevention of artificial generation of bradykinin (in words),[1],only decreased the formation of bradykinin at the 0.5 h and 1.5 h timepoints
aprotinin,Prevention of artificial generation of bradykinin (in words),[1],did not sufficiently prevent the artificial generation of bradykinin
"bradykinin 1-7 (RPPGFSP; Bradykinin; UniProt P01042 381-387, looked up, fragment)",Freeze-thaw stability (in words),[2],trended towards a decrease
"bradykinin 1-5 (RPPGF; Bradykinin; UniProt P01042 381-385, looked up, fragment)",Freeze-thaw stability (in words),[2],trended towards a decrease
"NCCc1ccc(S(=O)(=O)F)cc1 [AEBSF, 4-(2-aminoethyl)benzolsulfonylfluoride]",Prevention of artificial generation of bradykinin (in words),[1],did not sufficiently prevent the artificial generation of bradykinin
"N=C(N)c1ccc2cc(OC(=O)c3ccc(N=C(N)N)cc3)ccc2c1 [nafamostat, nafamostat mesylate]",Prevention of artificial generation of bradykinin (in words),[1],only decreased the formation of bradykinin at the 0.5 h and 1.5 h timepoints
hexadimethrine bromide,Prevention of artificial generation of bradykinin (in words),[1],lowest levels of bradykinin were detected
